# Measurements as given in patent publication US6756200B2, “Aberrantly methylated genes as markers of breast malignancy” (The Johns Hopkins University School of Medicine, priority 2001, dated 2004).
# “Also recorded” adds a separate entry of the source.
# What was measured:
# Format in all cases: cell-based, human
# [1] = test system: breast cancer cell lines; assay: Growth inhibition of a panel of breast cancer cell lines by RA; conditions: T47D, MDA-MB-435, MCF7 and ZR75-1 cell lines; 1 μM RA, 48 h
# Source text: Cell cultures Human epithelial mammary cells (HEMC) from reduction mammoplasty including three mortal strains, 184, 48R and 172R, and two immortal strains, 184A1 and 184B5, were obtained and cultured according to the protocols designed by Dr Martha Stampfer (see the HMEC Homepage, http://www.lbl.gov/*mrgs/index.htlm) using Clonetics (Walkersville, Md., USA) reagents. Human breast cancer cell lines were maintained in Dulbecco's modified Eagle's medium (GIBCO) (Hs578t,MCF-7, MDA-MB-231 and T47D) or IMEM medium (Biofluids) (MDA-MB-435, MDA-MB-468, ZR751) with 5% fetal calf serum (FCS). For drug treatments, exponentially growing cells were seeded in 10 cm^2 plates at a density of 36105 cells/plate or in 6-well plates at 16105 cells/well. Cells were allowed to attach overnight before the addition of the appropriate concentration of 5-Aza-2′ deoxycytidine (5-Aza-CdR) (Sigma), Trichostatin A (TSA) (Sigma) or RA(Sigma). When reduction of retinoids was required, cells were treated in either medium with 0.5% FCS or charcoal-dextran stripped FCS (Hyclone). At the indicated time points, both attached and detached cells were harvested, counted with Trypan Blue (Life Technologies) and processed for DNA or RNA extraction. 5-Aza-CdR was dissolved in 0.45% NaCl containing 10 mM sodium phosphate (pH 6.8). […]
# [2] = test system: RAR β; assay: RAR β expression by RT-PCR after drug treatment
# Procedure: Human breast cancer cell lines were maintained in Dulbecco's modified Eagle's medium (GIBCO) (Hs578t,MCF-7, MDA-MB-231 and T47D) or IMEM medium (Biofluids) (MDA-MB-435, MDA-MB-468, ZR751) with 5% fetal calf serum (FCS). For drug treatments, exponentially growing cells were seeded in 10 cm^2 plates at a density of 36105 cells/plate or in 6-well plates at 16105 cells/well. […] When reduction of retinoids was required, cells were treated in either medium with 0.5% FCS or charcoal-dextran stripped FCS (Hyclone). At the indicated time points, both attached and detached cells were harvested, counted with Trypan Blue (Life Technologies) and processed for DNA or RNA extraction. 5-Aza-CdR was dissolved in 0.45% NaCl containing 10 mM sodium phosphate (pH 6.8). Trichostatin A and all-trans-retinoic acid (RA) (Sigma) were reconstituted in absolute ethanol (solvent).
# [3] = test system: RAR β2 promoter; assay: Methylation of RAR β2 promoter CpG island (Southern blotting, MSP) after drug treatment; conditions: MCF7 cells; in the presence of RA
# [4] = test system: MDA-MB-231 cells; assay: Growth inhibition (%) by cell counting with Trypan Blue
# Source text: Cell cultures Human epithelial mammary cells (HEMC) from reduction mammoplasty including three mortal strains, 184, 48R and 172R, and two immortal strains, 184A1 and 184B5, were obtained and cultured according to the protocols designed by Dr Martha Stampfer (see the HMEC Homepage, http://www.lbl.gov/*mrgs/index.htlm) using Clonetics (Walkersville, Md., USA) reagents. Human breast cancer cell lines were maintained in Dulbecco's modified Eagle's medium (GIBCO) (Hs578t,MCF-7, MDA-MB-231 and T47D) or IMEM medium (Biofluids) (MDA-MB-435, MDA-MB-468, ZR751) with 5% fetal calf serum (FCS). For drug treatments, exponentially growing cells were seeded in 10 cm^2 plates at a density of 36105 cells/plate or in 6-well plates at 16105 cells/well. Cells were allowed to attach overnight before the addition of the appropriate concentration of 5-Aza-2′ deoxycytidine (5-Aza-CdR) (Sigma), Trichostatin A (TSA) (Sigma) or RA(Sigma). When reduction of retinoids was required, cells were treated in either medium with 0.5% FCS or charcoal-dextran stripped FCS (Hyclone). At the indicated time points, both attached and detached cells were harvested, counted with Trypan Blue (Life Technologies) and processed for DNA or RNA extraction. 5-Aza-CdR was dissolved in 0.45% NaCl containing 10 mM sodium phosphate (pH 6.8). Trichostatin A and all-trans-retinoic acid (RA) (Sigma) were reconstituted in absolute ethanol (solvent).
# [5] = test system: HOXA5; assay: HOXA5 mRNA re-expression by RT-PCR after 5-aza-dC; conditions: MDA-MB-231 cells; 0.75 μM 5-aza-dC
# Procedure: RT-PCR was performed using primers: 5′ […]-3′ (sense; SEQ ID NO:75) and 5′[…]-3′ (antisense; SEQ ID NO:76).
# [6] = test system: cyclin D2 promoter; assay: Methylation-specific PCR of the cyclin D2 promoter after 5-aza-dC; conditions: MDAMB231 and MCF7 cells; 0.75 μM 5-aza-dC
# Procedure: Methylation-specific PCR (MSP). One μg genomic DNA or the 50 ul extract of microdissected cells was treated with sodium bisulfite as described in Herman J G, (1996), and was analyzed by MSP using primer sets located within the CpG-rich island in the cyclin D2 promoter. Primers specific for unmethylated DNA were 5′-[…]-3′ (sense; SEQ ID NO:21) and 5′-[…]-3′ (antisense; SEQ ID NO:22) and yielded a 223 base-pairs PCR product. Primers specific for methylated DNA were 5′-[…]-3′ (sense; SEQ ID NO:23) and 5′-[…]-3′ (antisense; SEQ ID NO:24) and yielded a 276 base-pair PCR product. The PCR conditions were as follows: 1 cycle of 95° C. for 5 min; 35 cycles of 95° C. for 30s, 55° C. for 30s and 72° C. for 45s; and 1 cycle of 72° C. for 5 min.
# [7] = test system: cyclin D2; assay: Cyclin D2 mRNA re-expression by RT-PCR after 5-aza-dC or TSA; conditions: MDAMB231 and MCF7 cells
# Procedure: RT-PCR. […] PCR was performed using the primers [NT] (sense; SEQ ID NO:15) and [NT] […] (sense; SEQ ID NO: 17) and [NT] […] (sense; SEQ ID NO:19) and [NT] antisense; SEQ ID NO:20).
# [8] = test system: WT1; assay: WT1 expression by RT-PCR after treatment of breast cancer cell lines with 5-aza-dC or TSA
# Source text: (§1) Cell lines and finite life span cultures Cell lines were obtained from ATCC (Rockville, Md.) and grown according to conditions specified. Also utilized were three independent cultures of finite life span human mammary epithelial cells (HMEC): 16637 (Clonetics, Walkersville, Md.) and 1-26, 3-14 (kindly provided by Dr. Steve Ethier, Univ. Michigan, Ann Arbor, Mich.).
# RT-PCR for WT1 mRNA Methods for RNA extraction and RT-PCR are known to those of skill in the art. The sequences of the primers used are as follows: for amplifying the 555 bp region surrounding WT1 exon 5, 5′-[…]-3′ (sense, nucleotides 882-901; Q ID NO:1) and 5′-[…]-3′ (antisense, nucleotides 1416-1437; SEQ ID NO:2); for amplifying the 382 bp region surrounding the KTS insert, 5′-[…]-3′ (sense, nucleotides 1320-1339; SEQ ID NO:3) and 5′-[…]-3′ (antisense, nucleotides 1685-1702; SEQ ID NO:4). Amplification was performed using a hot-start protocol: samples were heated to 94° C. for 4 minutes and then cooled to 80° C. prior to the addition of Taq polymerase (RedTaq, Sigma, St. Louis, Mo.). Samples were then heated to 94° C. for 30 seconds followed by either 50° C. for 30 seconds (for the KTS primers) or 56° C. for 30 seconds (for the Exon 5 primers) and then 72° C. for 1 minute for 40 cycles. PCR products were resolved by electrophoresis, using a 2% agarose gel for the exon 5-splice variants and a 12% polyacrylamide gel to resolve the KTS insert variants. Co-amplification of the ribosomal RNA 36B4 was performed as an internal control using the following primers: 5′-[…]-3′ (sense; SEQ ID NO:5) and 5′-[…]-3′ (antisense; SEQ ID NO:6).
# [9] = test system: 14.3.3σ; assay: 14.3.3σ expression in the same treated samples; conditions: same samples: MDA-MB-231 and MCF-7 cells treated with 5-aza-deoxyC or TSA
# Source text: as §1
# [10] = test system: σ; assay: σ gene expression by RT-PCR after 5-aza-dC; conditions: Hs578t and MDA-MB-435 cells; 0.75 μM 5-aza-dC for 3 days
# Procedure: (§2) Cells were seeded at a density of 2×10^6 cells per 100-mm plate.
# RT-PCR. […] PCR was performed using the σ-specific primers 5′-[…]-3′ (SEQ ID NO:41) and 5′-[…]-3′ (SEQ ID NO:42) using buffer conditions described herein. The PCR conditions were: 1 cycle of 95° C. for 5 min; 30 cycles of 60° C. for 45s, 72° C. for 45s and 95° C. for 45s. PCR samples were resolved by electrophoresis in a 2% agarose gel.
# [11] = test system: σ CpG island; assay: Methylation-specific PCR of the σ CpG island after 5-aza-dC; conditions: Hs578t and MDA-MB-435 cells; 0.75 μM 5-aza-dC for 3 days
# Procedure: Methylation-specific PCR (MSP). One μg genomic DNA was treated with sodium bisulfite as described in (Herman, et al. (1996) Proc. Natl. Acad. Sci. USA 93, 9821-9826), and was analyzed by MSP using a primer set that covered CG dinucleotide numbers 3, 4, 8 and 9. Primers specific for methylated DNA: 5′-[…]-3′ (sense; SEQ ID NO:37) and 5′-[…]-3′ (antisense; SEQ ID NO:38), and primers specific for unmethylated DNA: 5′-[…]-3′ (sense; SEQ ID NO:39) and 5′-[…]-3′(antisense; SEQ ID NO:40) yielded a 105-107 bp PCR product. The PCR conditions were as follows: 1 cycle of 95° C. for 5 min; 31 cycles of 95° C. for 45s, 56° C. for 30s and 72° C. for 30s; and 1 cycle of 72° C. for 4 min.
# as §2
# [12] = test system: MCF-7 cells; assay: Pon A induction of HOXA5 in MCF-7 clones with ecdysone-inducible HOXA5: p53 pathway and apoptosis
# Source text: Immunoblot Analysis: Proteins were visualized by Western analysis and 10% SDS-PAGE. The primary antibodies [anti-HOXA5 (HOXA5-2, BABCO), anti-p53 (AB-6, Oncogene Science), or anti-β-actin (AC-15, Sigma), anti-p21 (15091A, Pharmingen), anti-Mdm2 (65101A, Pharmingen), anti-PARP (AB-2, Oncogene Sciences), anti-dynein (Zymed) and anti- Na+, K+-ATPase (Ed Benz, Johns Hopkins) (also used as loading controls, with actin)] were used at 1:1000 dilution.
# To test this possibility, breast cancer cells, MCF-7 and ZR75.1, which harbor wildtype p53 genes, were transfected with the full length HOXA5 and the ΔHOXA5 (homeodomain-deleted) expression plasmids and tested for colony-forming ability. No surviving colonies were obtained from HOXA5-transfected cells whereas those transfected with ΔHOXA5 and the vector control generated colonies with equal efficiency. To obtain stable cultures that could express HOXA5, clones of MCF-7 cells were generated in which the HOXA5 gene was placed under the control of an ecdysone-inducible promoter. Within 3 hours after induction of HOXA5 expression by the ecdysone analog, Ponasterone A (Pon A), the levels of p53 mRNA rose by 2-fold.
# [13] = 0.4 mM 5-Aza-CdR and/or 1 μM RA
# [14] = 2 days, 100 ng/ml TSA and/or RA
smiles,measurement,setting,value
"CC1=C(/C=C/C(C)=C/C=C/C(C)=C/C(=O)O)C(C)(C)CCC1 [RA, all-trans-retinoic acid]",growth inhibition,[1],growth inhibition
same,RAR β expression,"[2]; T47D, MDA-MB-435, MCF7 and ZR75-1 cell lines, 1 μM RA, 48 h",induction of RAR β expression
same,methylation at RAR β2,[3],persistence of methylation
same,growth inhibition,[4]; [13],52%
same,growth inhibition,[4]; [14],52%
"Nc1ncn([C@H]2C[C@H](O)[C@@H](CO)O2)c(=O)n1 [5-aza-dC, 5-aza-2′-deoxycytidine]",expression of HOXA5 mRNA,[5],re-initiated
same,cyclin D2 promoter methylation (MSP),[6],partially demethylated
same,cyclin D2 mRNA expression (RT-PCR),[7]; 0.75 μM 5-aza-dC,restored
same,WT1 expression,"[8]; MCF-7 cells, 0.75 μM 5-aza-dC, listed as 5-aza-deoxyC",not seen; also recorded: did not cause WT1 expression
same,WT1 expression,"[8]; MDA-MB-231 cells, 0.75 μM 5-aza-dC, listed as 5-aza-deoxyC",results in re-expression of the gene; also recorded: resulted in WT1 expression
same,expression of 14.3.3σ,[9],restored expression
same,σ gene expression (RT-PCR),[10],reactivation of gene expression
same,methylation of the σ CpG rich region (MSP),[11],demethylation
same,growth inhibition,[4]; [13],63%
"CC(/C=C/C(=O)NO)=C\[C@@H](C)C(=O)c1ccc(N(C)C)cc1 [TSA, Trichostatin A]",cyclin D2 mRNA expression (RT-PCR),[7]; 100 ng/ml TSA,re-expression
same,WT1 expression,"[8]; MDA-MB-231 and MCF-7 cells (either cell line), 100 ng/ml TSA",no effect; also recorded: nor did TSA restore expression
same,expression of 14.3.3σ,[9],restored expression
same,RAR β mRNA expression (RT-PCR),"[2]; MDA-MB-231 cells, 2 days, 100 ng/ml TSA with 1 μM RA",can reactivate RAR β expression
same,growth inhibition,[4]; [14],77%
"CC(C)CC[C@@H](O)[C@](C)(O)[C@H]1CC[C@@]2(O)C3=CC(=O)[C@@H]4C[C@@H](O)[C@@H](O)C[C@]4(C)[C@H]3CC[C@]12C [Pon A, Ponasterone A]",DNA laddering,[12],observed
same,levels of Bax protein,[12],not accompanied by a detectable change
same,"p53, p21, Mdm2 and HOXA5 induction (Western blotting)",[12],2-5 fold
same,"cells with micronucleus formation, membrane blebbing and ghost cell features",[12]; acridine orange staining,70%
same,cell death,[12]; after 48 hours,80-90%
same,poly (ADP-ribose) polymerase cleavage,[12]; by 12 hours,underwent cleavage
same,cell morphology,[12]; by 24 hours,cell shrinkage
same,levels of p53 mRNA,[12]; within 3 hours after induction,2 fold
